In patent US9708308B2, “Factor IXa inhibitors” (Merck Sharp & Dohme Corp., priority 2012, dated 2017) one finds IC50 data, which are given here for 26 compounds.

SMILES strings stand for the structures.

Chain of Factor IXa (P00740 227-461 limits assumed): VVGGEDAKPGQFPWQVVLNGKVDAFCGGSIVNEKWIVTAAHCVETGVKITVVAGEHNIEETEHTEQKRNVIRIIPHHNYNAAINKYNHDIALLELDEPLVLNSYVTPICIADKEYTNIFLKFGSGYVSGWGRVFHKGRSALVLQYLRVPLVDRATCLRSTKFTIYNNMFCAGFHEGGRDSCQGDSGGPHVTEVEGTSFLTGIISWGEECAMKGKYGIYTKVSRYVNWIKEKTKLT
Chain of Factor IXa (P00740 47-191 partner limits assumed): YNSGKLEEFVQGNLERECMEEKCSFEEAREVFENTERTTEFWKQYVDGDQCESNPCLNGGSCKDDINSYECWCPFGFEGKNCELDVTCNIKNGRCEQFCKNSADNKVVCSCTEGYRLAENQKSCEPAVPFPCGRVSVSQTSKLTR

The assay concerns the target Factor IXa (Homo sapiens, UniProt P00740). As to the kind of experiment: Determination of inhibitory activity against Factor IXa (cleavage of fluorescent peptide substrate). The format is biochemical. Conditions: cleavage of fluorescent peptide CH3SO2-D-CHG-Gly-Arg-AFC, release of AFC; read-out: FIXa IC50. The procedure, abridged:
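Factor IXa activity followed via cleavage of CH3SO2-D-CHG-Gly-Arg-AFC, releasing AFC. Fluorescence read at excitation 405 nm, emission 510 nm.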
The IC50 is the point on the concentration scale where inhibition reaches its midpoint. Take `C[C@]1([C@@H](O)C(=O)Nc2ccc3c(N)noc3c2)OCCN(c2ccn(-c3ccncc3F)n2)C1=O` [Example 90, (R)—N-(3-aminobenzo[d]isoxazol-6-yl)-2-((R)-4-(1-(3-fluoropyridin-4-yl)-1H-pyrazol-3-yl)-2-methyl-3-oxomorpholin-2-yl)-2-hydroxyacetamide]: the IC50 is 0.0235 µM.

For the compound `COC(=O)c1cc(-n2ccc(N3CCO[C@](C)([C@@H](O)C(=O)Nc4ccc5c(N)noc5c4)C3=O)n2)ccn1` [Example 91, methyl 4-(3-((R)-2-((R)-2-((3-aminobenzo[d]isoxazol-6-yl)amino)-1-hydroxy-2-oxoethyl)-2-methyl-3-oxomorpholino)-1H-pyrazol-1-yl)picolinate], the IC50 was 0.69 µM.

On to `COc1cc(-n2ccc(N3CCO[C@](C)([C@@H](O)C(=O)Nc4ccc5c(N)noc5c4)C3=O)n2)ccn1` [Example 92, (R)—N-(3-aminobenzo[d]isoxazol-6-yl)-2-hydroxy-2-((R)-4-(1-(2-methoxypyridin-4-yl)-1H-pyrazol-3-yl)-2-methyl-3-oxomorpholin-2-yl)acetamide], for which the IC50 turned out to be 0.106 µM.

For `C[C@]1([C@@H](O)C(=O)Nc2ccc3c(N)noc3c2)OCCN(c2ccn(-c3ccnc(C(F)(F)F)c3)n2)C1=O` [Example 94, (R)—N-(3-aminobenzo[d]isoxazol-6-yl)-2-hydroxy-2-((R)-2-methyl-3-oxo-4-(1-(2-(trifluoromethyl)pyridin-4-yl)-1H-pyrazol-3-yl)morpholin-2-yl)acetamide], the 50% inhibitory concentration (IC50) is 0.0129 µM.

As to `C[C@]1([C@@H](O)C(=O)Nc2ccc3c(N)noc3c2)OCCN(c2ccn(-c3c(F)cncc3F)n2)C1=O` [Example 95, (R)—N-(3-aminobenzo[d]isoxazol-6-yl)-2-((R)-4-(1-(3,5-difluoropyridin-4-yl)-1H-pyrazol-3-yl)-2-methyl-3-oxomorpholin-2-yl)-2-hydroxyacetamide], the IC50 was 0.251 µM.

Turning to `Cc1cc(N2CCO[C@](C)([C@@H](O)C(=O)Nc3ccc4c(N)noc4c3)C2=O)nn1-c1ccnc(C(F)(F)F)c1` [Example 96, (R)—N-(3-aminobenzo[d]isoxazol-6-yl)-2-hydroxy-2-((R)-2-methyl-4-(5-methyl-1-(2-(trifluoromethyl)pyridin-4-yl)-1H-pyrazol-3-yl)-3-oxomorpholin-2-yl)acetamide], the concentration for half-maximal inhibition (IC50) worked out at 0.0491 µM.

For `C[C@]1([C@@H](O)C(=O)Nc2ccc3c(N)noc3c2)OCCN(c2ccn(-c3ccnnc3)n2)C1=O` [Example 97, (R)—N-(3-aminobenzo[d]isoxazol-6-yl)-2-hydroxy-2-((R)-2-methyl-3-oxo-4-(1-(pyridazin-4-yl)-1H-pyrazol-3-yl)morpholin-2-yl)acetamide], the half-inhibitory concentration (IC50) was 0.00368 µM.

Consider `COc1cc(-n2ccc(N3CCO[C@](C)([C@@H](O)C(=O)Nc4ccc5c(N)noc5c4)C3=O)n2)cnn1` [Example 98, (R)—N-(3-aminobenzo[d]isoxazol-6-yl)-2-hydroxy-2-((R)-4-(1-(6-methoxypyridazin-4-yl)-1H-pyrazol-3-yl)-2-methyl-3-oxomorpholin-2-yl)acetamide], for which the IC50 worked out at 0.00371 µM.

With `[2H]C([2H])([2H])Oc1cc(-n2ccc(N3CCO[C@](C)([C@@H](O)C(=O)Nc4ccc5c(N)noc5c4)C3=O)n2)cnn1` [Example 99, (2R)—N-(3-amino-1,2-benzoxazol-6-yl)-2-hydroxy-2-[(2R)-2-methyl-3-oxo-4-[1-[6-(trideuteriomethoxy)pyridazin-4-yl]pyrazol-3-yl]morpholin-2-yl]acetamide], the half-maximal inhibitory concentration (IC50) is 0.0037 µM.

For the compound `C[C@]1([C@@H](O)C(=O)Nc2ccc3c(N)noc3c2)OCCN(c2ccn(-c3cnnc(C#N)c3)n2)C1=O` [Example 100, (R)—N-(3-aminobenzo[d]isoxazol-6-yl)-2-((R)-4-(1-(6-cyanopyridazin-4-yl)-1H-pyrazol-3-yl)-2-methyl-3-oxomorpholin-2-yl)-2-hydroxyacetamide], the IC50 came out at 0.00217 µM.

As to `COc1ncc(-n2ccc(N3CCO[C@](C)([C@@H](O)C(=O)Nc4ccc5c(N)noc5c4)C3=O)n2)cn1` [Example 101, (R)—N-(3-aminobenzo[d]isoxazol-6-yl)-2-hydroxy-2-((R)-4-(1-(2-methoxypyrimidin-5-yl)-1H-pyrazol-3-yl)-2-methyl-3-oxomorpholin-2-yl)acetamide], the concentration for half-maximal inhibition (IC50) came out at 0.635 µM.

In the case of `C[C@]1([C@@H](O)C(=O)Nc2ccc3c(N)noc3c2)OCCN(c2ccn(-c3cnc(C(F)(F)F)nc3)n2)C1=O` [Example 102, (R)—N-(3-aminobenzo[d]isoxazol-6-yl)-2-hydroxy-2-((R)-2-methyl-3-oxo-4-(1-(2-(trifluoromethyl)pyrimidin-5-yl)-1H-pyrazol-3-yl)morpholin-2-yl)acetamide], the IC50 worked out at 0.124 µM.

With `COc1nccc(-n2ccc(N3CCO[C@](C)([C@@H](O)C(=O)Nc4ccc5c(N)noc5c4)C3=O)n2)n1` [Example 103, (R)—N-(3-aminobenzo[d]isoxazol-6-yl)-2-hydroxy-2-((R)-4-(1-(2-methoxypyrimidin-4-yl)-1H-pyrazol-3-yl)-2-methyl-3-oxomorpholin-2-yl)acetamide], the IC50 is 0.0108 µM.

As for `Cc1cc(N2CCO[C@](C)([C@@H](O)C(=O)Nc3ccc4c(N)noc4c3)C2=O)nn1C1CC1` [Example 104, (R)—N-(3-aminobenzo[d]isoxazol-6-yl)-2-((R)-4-(1-cyclopropyl-5-methyl-1H-pyrazol-3-yl)-2-methyl-3-oxomorpholin-2-yl)-2-hydroxyacetamide], the IC50 is 0.401 µM.

Turning to `C[C@]1([C@@H](O)C(=O)Nc2ccc3c(N)noc3c2)OCCN(c2nc(-c3ccncc3)co2)C1=O` [Example 105, (R)—N-(3-aminobenzo[d]isoxazol-6-yl)-2-hydroxy-2-((R)-2-methyl-3-oxo-4-(4-(pyridin-4-yl)oxazol-2-yl)morpholin-2-yl)acetamide], the IC50 was 0.0979 µM.

For `C[C@]1([C@@H](O)C(=O)Nc2ccc3c(N)noc3c2)OCCN(c2cccc(OC3CCOCC3)n2)C1=O` [Example 108, (R)—N-(3-aminobenzo[d]isoxazol-6-yl)-2-hydroxy-2-((R)-2-methyl-3-oxo-4-(6-((tetrahydro-2H-pyran-4-yl)oxy)pyridin-2-yl)morpholin-2-yl)acetamide], the IC50 is 0.37 µM.

On to `C[C@]1([C@@H](O)C(=O)Nc2ccc3c(N)noc3c2)OCCN(c2cccc(-c3ccc(OC(F)(F)F)cc3)n2)C1=O` [Example 109, (R)—N-(3-aminobenzo[d]isoxazol-6-yl)-2-hydroxy-2-((R)-2-methyl-3-oxo-4-(6-(4-(trifluoromethoxy)phenyl)pyridin-2-yl)morpholin-2-yl)acetamide], for which the concentration for half-maximal inhibition (IC50) is 0.38 µM.

Turning to `C[C@]1([C@@H](O)C(=O)Nc2ccc3c(N)noc3c2)OCCN(c2cccc(-c3ccc(C(=O)O)cc3)n2)C1=O` [Example 110, 4-(6-((R)-2-((R)-2-((3-aminobenzo[d]isoxazol-6-yl)amino)-1-hydroxy-2-oxoethyl)-2-methyl-3-oxomorpholino)pyridin-2-yl)benzoic acid], the concentration for half-maximal inhibition (IC50) came to 0.455 µM.

As for `C[C@]1([C@@H](O)C(=O)Nc2ccc3c(N)noc3c2)OCCN(c2cccc(-c3ccc(C(F)(F)F)cc3C(=O)O)n2)C1=O` [Example 111, 2-(6-((R)-2-((R)-2-((3-aminobenzo[d]isoxazol-6-yl)amino)-1-hydroxy-2-oxoethyl)-2-methyl-3-oxomorpholino)pyridin-2-yl)-5-(trifluoromethyl)benzoic acid], the IC50 was 0.972 µM.

For the compound `C[C@]1([C@@H](O)C(=O)Nc2ccc3c(N)noc3c2)OCCN(c2cccc(-c3ccnnc3)n2)C1=O` [Example 112, (R)—N-(3-aminobenzo[d]isoxazol-6-yl)-2-hydroxy-2-((R)-2-methyl-3-oxo-4-(6-(pyridazin-4-yl)pyridin-2-yl)morpholin-2-yl)acetamide], the IC50 is 0.0416 µM.

Turning to `C[C@]1([C@@H](O)C(=O)Nc2ccc3c(N)noc3c2)OCCN(c2cccc(-c3cnc(C(F)(F)F)nc3)n2)C1=O` [Example 113, (R)—N-(3-aminobenzo[d]isoxazol-6-yl)-2-hydroxy-2-((R)-2-methyl-3-oxo-4-(6-(2-(trifluoromethyl)pyrimidin-5-yl)pyridin-2-yl)morpholin-2-yl)acetamide], the half-maximal inhibitory concentration (IC50) turned out to be 0.464 µM.

Take `C[C@]1([C@@H](O)C(=O)Nc2ccc3c(N)noc3c2)OCCN(c2cccc(-c3cnoc3)n2)C1=O` [Example 114, (R)—N-(3-aminobenzo[d]isoxazol-6-yl)-2-hydroxy-2-((R)-4-(6-(isoxazol-4-yl)pyridin-2-yl)-2-methyl-3-oxomorpholin-2-yl)acetamide]: the IC50 was found to be 0.0453 µM.

Turning to `Cc1nocc1-c1cccc(N2CCO[C@](C)([C@@H](O)C(=O)Nc3ccc4c(N)noc4c3)C2=O)n1` [Example 115, (R)—N-(3-aminobenzo[d]isoxazol-6-yl)-2-hydroxy-2-((R)-2-methyl-4-(6-(3-methylisoxazol-4-yl)pyridin-2-yl)-3-oxomorpholin-2-yl)acetamide], the IC50 was 0.0682 µM.

For the compound `Cc1noc(C)c1-c1cccc(N2CCO[C@](C)([C@@H](O)C(=O)Nc3ccc4c(N)noc4c3)C2=O)n1` [Example 116, (R)—N-(3-aminobenzo[d]isoxazol-6-yl)-2-((R)-4-(6-(3,5-dimethylisoxazol-4-yl)pyridin-2-yl)-2-methyl-3-oxomorpholin-2-yl)-2-hydroxyacetamide], the concentration for half-maximal inhibition (IC50) was determined as 0.0935 µM.

For the compound `C[C@]1([C@@H](O)C(=O)Nc2ccc3c(N)noc3c2)OCCN(c2ccc3ccncc3n2)C1=O` [Example 117, (R)—N-(3-aminobenzo[d]isoxazol-6-yl)-2-hydroxy-2-((R)-2-methyl-4-(1,7-naphthyridin-2-yl)-3-oxomorpholin-2-yl)acetamide], the IC50 worked out at 0.544 µM.

`C[C@]1([C@@H](O)C(=O)Nc2ccc3c(N)noc3c2)OCCN(c2ccc3cc(C(F)(F)F)ncc3n2)C1=O` [Example 118, (R)—N-(3-aminobenzo[d]isoxazol-6-yl)-2-hydroxy-2-((R)-2-methyl-3-oxo-4-(6-(trifluoromethyl)-1,7-naphthyridin-2-yl)morpholin-2-yl)acetamide]: the concentration for half-maximal inhibition (IC50) came to 0.101 µM.
